# Laboratory results as given in paper PMC2358886, “Evolution of pharmacologic specificity in the pregnane X receptor” (BMC Evolutionary Biology, 2008).
# Read-outs that look alike come from different tables or passages of the source.
# How the values were obtained:
# human PXR [1] = molecular target: T1, human PXR (Homo sapiens, UniProt O75469)
# T1 sequence (O75469 1-434): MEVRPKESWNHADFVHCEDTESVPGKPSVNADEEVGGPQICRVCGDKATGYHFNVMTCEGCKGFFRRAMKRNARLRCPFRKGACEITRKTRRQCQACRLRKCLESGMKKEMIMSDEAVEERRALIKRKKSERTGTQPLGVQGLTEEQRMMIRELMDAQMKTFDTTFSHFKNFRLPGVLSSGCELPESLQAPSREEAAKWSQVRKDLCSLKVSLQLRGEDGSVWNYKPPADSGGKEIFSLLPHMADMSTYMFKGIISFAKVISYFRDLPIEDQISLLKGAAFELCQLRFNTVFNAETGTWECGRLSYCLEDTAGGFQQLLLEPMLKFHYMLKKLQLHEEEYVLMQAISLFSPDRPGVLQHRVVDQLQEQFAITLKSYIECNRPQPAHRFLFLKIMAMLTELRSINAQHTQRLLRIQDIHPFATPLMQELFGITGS
# zebrafish PXR [2] = molecular target: T2, zebrafish PXR (Danio rerio, UniProt A5WYG8); details: for zfPXR Activity: -log(EC50), EC50 in molar units, activation of zebrafish PXR
# T2 sequence (A5WYG8 144-430): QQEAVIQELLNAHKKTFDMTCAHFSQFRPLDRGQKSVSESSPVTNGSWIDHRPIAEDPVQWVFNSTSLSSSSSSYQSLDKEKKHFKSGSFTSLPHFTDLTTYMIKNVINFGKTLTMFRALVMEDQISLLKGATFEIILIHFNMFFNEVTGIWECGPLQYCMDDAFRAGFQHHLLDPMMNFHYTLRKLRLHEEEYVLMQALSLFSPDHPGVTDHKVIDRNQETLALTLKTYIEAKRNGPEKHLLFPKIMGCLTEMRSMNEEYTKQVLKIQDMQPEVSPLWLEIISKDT
# HepG2 cells [3] = test system: HepG2 cells
# mouse PXR = molecular target: T3, mouse PXR (Mus musculus, UniProt O54915); details: for Mouse PXR Activity: -log(EC50), EC50 in molar units
# T3 sequence (O54915 1-431): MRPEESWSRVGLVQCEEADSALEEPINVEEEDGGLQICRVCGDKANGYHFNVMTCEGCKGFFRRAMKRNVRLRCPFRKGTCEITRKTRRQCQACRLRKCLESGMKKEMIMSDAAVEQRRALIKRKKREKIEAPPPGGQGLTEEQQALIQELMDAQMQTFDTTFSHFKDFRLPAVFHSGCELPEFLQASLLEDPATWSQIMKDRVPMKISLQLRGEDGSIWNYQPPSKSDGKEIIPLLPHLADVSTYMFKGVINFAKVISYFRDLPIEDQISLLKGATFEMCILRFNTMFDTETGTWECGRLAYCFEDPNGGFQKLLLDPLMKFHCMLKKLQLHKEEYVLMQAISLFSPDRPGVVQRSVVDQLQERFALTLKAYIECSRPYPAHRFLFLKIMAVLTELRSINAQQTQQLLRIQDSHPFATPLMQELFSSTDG
# rat PXR = molecular target: T4, rat PXR (Rattus norvegicus, UniProt Q9R1A7); details: for Rat PXR Activity: -log(EC50), EC50 in molar units
# T4 sequence (Q9R1A7 1-431): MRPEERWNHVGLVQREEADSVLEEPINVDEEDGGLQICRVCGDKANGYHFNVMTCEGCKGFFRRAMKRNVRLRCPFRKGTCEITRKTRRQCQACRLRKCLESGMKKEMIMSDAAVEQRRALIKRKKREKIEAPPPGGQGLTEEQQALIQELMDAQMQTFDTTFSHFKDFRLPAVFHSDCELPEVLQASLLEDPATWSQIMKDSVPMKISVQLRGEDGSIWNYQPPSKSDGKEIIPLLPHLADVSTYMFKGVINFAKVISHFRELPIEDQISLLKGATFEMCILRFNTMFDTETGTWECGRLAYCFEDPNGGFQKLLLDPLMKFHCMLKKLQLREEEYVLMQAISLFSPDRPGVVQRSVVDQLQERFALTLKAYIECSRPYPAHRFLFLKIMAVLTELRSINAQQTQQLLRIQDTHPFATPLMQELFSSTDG
# chicken PXR [4] = molecular target: T5, chicken PXR (Gallus gallus, UniProt Q9DFH3)
# T5 sequence (Q9DFH3 1-391): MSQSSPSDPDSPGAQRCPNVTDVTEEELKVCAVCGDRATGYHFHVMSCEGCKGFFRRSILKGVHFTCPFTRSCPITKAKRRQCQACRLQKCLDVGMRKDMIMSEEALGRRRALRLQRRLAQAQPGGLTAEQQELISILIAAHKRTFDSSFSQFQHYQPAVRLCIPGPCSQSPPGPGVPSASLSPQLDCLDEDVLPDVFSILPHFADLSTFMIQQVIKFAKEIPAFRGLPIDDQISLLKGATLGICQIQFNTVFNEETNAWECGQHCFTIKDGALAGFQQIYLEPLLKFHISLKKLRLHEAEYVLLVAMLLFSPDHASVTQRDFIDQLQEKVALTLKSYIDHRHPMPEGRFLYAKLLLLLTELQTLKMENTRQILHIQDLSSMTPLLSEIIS
# rabbit PXR = molecular target: T6, rabbit PXR (Oryctolagus cuniculus, UniProt Q9TU02); test: PXR activation luciferase reporter assay, rabbit PXR; details: for Rabbit PXR Activity: -log(EC50), EC50 in molar units; for Rabbit PXR efficacy, ε: relative to 50 μM 5α-pregnan-3,20-dione, assigned an efficacy of 1.0
# T6 sequence (Q9TU02 1-411): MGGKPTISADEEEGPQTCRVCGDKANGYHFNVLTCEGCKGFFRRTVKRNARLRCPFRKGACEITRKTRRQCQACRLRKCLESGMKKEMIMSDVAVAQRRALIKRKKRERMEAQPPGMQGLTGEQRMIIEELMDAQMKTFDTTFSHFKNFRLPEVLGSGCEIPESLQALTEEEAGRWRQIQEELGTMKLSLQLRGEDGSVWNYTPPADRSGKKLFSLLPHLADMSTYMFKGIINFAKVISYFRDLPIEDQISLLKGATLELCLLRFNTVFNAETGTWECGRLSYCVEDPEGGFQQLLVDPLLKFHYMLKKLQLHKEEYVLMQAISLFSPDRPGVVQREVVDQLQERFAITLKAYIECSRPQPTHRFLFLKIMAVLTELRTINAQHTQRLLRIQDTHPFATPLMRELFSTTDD
# human PXR [5] = molecular target: T1, human PXR; test: PXR activation luciferase reporter assay, human PXR in HepG2-NTCP cells
# zebrafish PXR [6] = molecular target: T2, zebrafish PXR; test: cell-based
# chicken PXR [7] = molecular target: T5, chicken PXR; test: cell-based
# HepG2 cells [8] = test: Toxicity assays in HepG2 cells (MTT and alamar blue reduction); details: lowest concentration that produced significant toxicity in the HepG2 cells
# [9] = -log(EC50), EC50 in molar units
# [10] = -log(EC50), EC50 in molar units, activation of human PXR
# [11] = relative to 20 μM pregnenolone 16α-carbonitrile, assigned an efficacy of 1.0
compound,measurement,setting,value
"c1ccc2c(c1)cc1ccc3cccc4ccc2c1c34 [MI3, Benzo [a]pyren]",hPXR Efficacy,human PXR [1],0.55
same,zfPXR Efficacy,zebrafish PXR [2],0.06
same,zfPXR Activity,zebrafish PXR [2],4.00
same,Toxicity,HepG2 cells [3],100 µM
same,"Mouse PXR efficacy, ε",mouse PXR,0.94
same,Mouse PXR Activity,mouse PXR,4.86
same,"Rat PXR efficacy, ε",rat PXR,0.45
same,Rat PXR Activity,rat PXR,4.85
same,"Chicken PXR efficacy, ε",chicken PXR [4],0.50
same,Chicken PXR Activity,chicken PXR [4]; [9],4.40
same,Rabbit PXR Activity,rabbit PXR,No effect
same,hPXR Activity,human PXR [5]; [10],4.75
"C[C@]12CC[C@H](O)C[C@@H]1CC[C@@H]1[C@@H]2CC[C@]2(C)C=CC[C@@H]12 [AN21, 5α-Androst-16-en-3β-ol]",zfPXR Efficacy,zebrafish PXR [2]; zebrafish,2.11
same,Toxicity,"HepG2 cells [3]; human, 24 hr",50 µM
same,"Chicken PXR efficacy, ε",chicken PXR [4]; chicken,2.99
same,EC50,zebrafish PXR [6],3.31 µM
same,EC50,chicken PXR [7],7.24 µM
same,EC50,human PXR [5],4.79 µM
"C[C@H](CCC(=O)O)[C@H]1CC[C@H]2[C@@H]3[C@H](O)[C@@H](O)[C@@H]4C[C@H](O)CC[C@]4(C)[C@H]3CC[C@]12C [BI018, α-Muricholic acid]",Mouse PXR Activity,mouse PXR,4.59
same,"Mouse PXR efficacy, ε",mouse PXR; [11],2.63
same,Rat PXR Activity,rat PXR,3.95
same,"Rat PXR efficacy, ε",rat PXR; [11],1.31
"C[C@]12CCC(=O)C[C@@H]1CC[C@@H]1[C@@H]2CC[C@]2(C)C=CC[C@@H]12 [AN22, 5α-Androst-16-en-3-one]",zfPXR Efficacy,zebrafish PXR [2]; zebrafish,0.68
same,Toxicity,"HepG2 cells [3]; human, 24 hr",100 µM
same,"Chicken PXR efficacy, ε",chicken PXR [4]; chicken,0.77
same,EC50,zebrafish PXR [6],2.63 µM
same,EC50,chicken PXR [7],10.2 µM
same,EC50,human PXR [5],3.02 µM
"C[C@H](CCC(=O)NCCS(=O)(=O)O)[C@H]1CC[C@H]2[C@@H]3CC[C@@H]4C[C@H](O)CC[C@]4(C)[C@H]3C[C@H](O)[C@]12C [BI010, Taurodeoxycholic acid]",EC50,rabbit PXR,14.5 µM
same,"Rabbit PXR efficacy, ε",rabbit PXR,0.15
"C[C@]12CC[C@@H](O)C[C@@H]1CC[C@@H]1[C@@H]2CC[C@]2(C)[C@@H](O)CC[C@@H]12 [AN1, 5α-Androstan-3α,17β-diol]",hPXR Efficacy,human PXR [1]; human,0.68
same,zfPXR Efficacy,"zebrafish PXR [2]; relative to 20 μM 5α-androstan-3α-ol, assigned an efficacy of 1.0",0.84
same,Toxicity,HepG2 cells [3],None
same,"Chicken PXR efficacy, ε","chicken PXR [4]; relative to 20 μM nifedipine, assigned an efficacy of 1.0",2.28
same,EC50,"zebrafish PXR [6]; zfPXR Activity, -log(EC50), EC50 in molar units, activation of zebrafish PXR",6.46 µM
same,EC50,chicken PXR [7],8.51 µM
same,EC50,"human PXR [5]; hPXR Activity, -log(EC50), EC50 in molar units, activation of human PXR",4.17 µM
"C[C@H](CCC(=O)NCC(=O)O)[C@H]1CC[C@H]2[C@@H]3[C@H](O)C[C@@H]4C[C@H](O)CC[C@]4(C)[C@H]3C[C@H](O)[C@]12C [BI021, Glycocholic acid]",Mouse PXR Activity,mouse PXR,No effect
same,Rat PXR Activity,rat PXR,No effect
same,Chicken PXR Activity,chicken PXR [4],No effect
"C[C@H](CCC(=O)NCCS(=O)(=O)O)[C@H]1CC[C@H]2[C@@H]3[C@@H](O)[C@@H](O)[C@@H]4C[C@H](O)CC[C@]4(C)[C@H]3CC[C@]12C [BI046, 5β-Cholanic acid-3α,6β,7β-triol N-(2-sulfoethyl)-amide]",zfPXR Activity,zebrafish PXR [2],None
same,Mouse PXR Activity,mouse PXR,No effect
same,Rat PXR Activity,rat PXR,No effect
same,Chicken PXR Activity,chicken PXR [4]; [9],No effect
same,Rabbit PXR Activity,rabbit PXR,No effect
same,Toxicity,HepG2 cells [8],None
same,hPXR Activity,human PXR [5]; [10],None
"CC(CCC(=O)NCC(=O)O)C1CCC2C3C(O)CC4CC(O)CCC4(C)C3CCC12C (stereo not drawn) [BI006, Glycochenodeoxycholic acid]","Chicken PXR efficacy, ε",chicken PXR [4]; chicken,0.41
same,EC50,chicken PXR [7],25.1 µM
"CC(CCC(=O)O)C1CCC2C3C(O)C(O)C4CC(O)CCC4(C)C3CCC12C (stereo not drawn) [BI017, ω-Muricholic acid]",Mouse PXR Activity,mouse PXR,No effect
same,Rat PXR Activity,rat PXR,No effect
"C[C@H](CCC(=O)O)[C@H]1CC[C@H]2[C@@H]3C(=O)C[C@@H]4C[C@H](O)CC[C@]4(C)[C@H]3C[C@H](O)[C@]12C [BI042, 5β-Cholanic acid-3α,12α-diol-7-one]",zfPXR Activity,zebrafish PXR [2],None
same,Rabbit PXR Activity,rabbit PXR,4.31
same,"Rabbit PXR efficacy, ε",rabbit PXR,1.55
same,Toxicity,HepG2 cells [8],None
same,hPXR Activity,human PXR [5]; [10],4.24
same,hPXR Efficacy,"human PXR [5]; relative to 10 μM rifampicin, assigned an efficacy of 1.0",0.49
"CC(C)CCC[C@@H](C)[C@H]1CC[C@H]2[C@@H]3[C@H](O)C=C4C[C@@H](O)CC[C@]4(C)[C@H]3CC[C@]12C [BI047, 7α-Hydroxycholesterol]",zfPXR Activity,zebrafish PXR [2],None
same,Toxicity,HepG2 cells [3],None
same,Mouse PXR Activity,mouse PXR,No effect
same,Rat PXR Activity,rat PXR,No effect
same,Chicken PXR Activity,chicken PXR [4]; [9],No effect
same,Rabbit PXR Activity,rabbit PXR,No effect
same,hPXR Activity,human PXR [5]; [10],None
"CC(CCC(=O)NCC(=O)O)C1CCC2C3CCC4CC(O)CCC4(C)C3CC(O)C12C (stereo not drawn) [BI009, Glycodeoxycholic acid]",EC50,rabbit PXR,15.5 µM
same,"Rabbit PXR efficacy, ε",rabbit PXR,0.40
"C[C@H](CCC(=O)O)[C@H]1CC[C@H]2[C@@H]3[C@@H](O)[C@@H](O)[C@@H]4C[C@H](O)CC[C@]4(C)[C@H]3CC[C@]12C [BI019, β-Muricholic acid]",Mouse PXR Activity,mouse PXR,No effect
same,Rat PXR Activity,rat PXR,No effect
"CC(=O)[C@H]1[C@H](C#N)C[C@H]2[C@@H]3CC=C4C[C@@H](O)CC[C@]4(C)[C@H]3CC[C@@]21C [PR13, 5-Pregnen-16α-cyano-3β-ol-20-one]",zfPXR Activity,zebrafish PXR [2],None
same,Toxicity,HepG2 cells [3],None
same,"Mouse PXR efficacy, ε",mouse PXR,6.41 (ε = 1.0)
same,Mouse PXR Activity,mouse PXR,6.41 (ε = 1.0)
same,"Rat PXR efficacy, ε",rat PXR,6.20 (ε = 1.0)
same,Rat PXR Activity,rat PXR,6.20 (ε = 1.0)
same,hPXR Activity,human PXR [5]; [10],None
